Data reported in patent EP0636368B1, “The use of 2- phenylmethylene -1- 3'-(amino)-2'-(hydroxy)--propoxy-imino -cyclohexane derivatives” (EGIS GYOGYSZERGYAR RT., priority 1993, dated 1995).
≈ marks a conversion by molar mass, not a printed value.

How the values were obtained:
[1] = system: lesions of gastric mucosa; experiment: Test with ethanol containing hydrochloric acid (erosion frequency and erosion index); type: in vivo, Rats; conditions: for Inhibition of the erosion frequency Relative activity / Inhibition of the erosion index Relative activity: ED50 of cetraxate divided by ED50 of the compound tested; for ED50: Rattus norvegicus, po, read-out: Inhibition of the erosion frequency ED50 p.o.; for ED50 / Inhibition of the erosion index ED50 p.o.: rats, peroral, conc. hydrochloric acid/absolute ethanol 1 to 50
Description: The principle of the method consists in that, simultaneously with the administration of absolute ethanol, hydrochloric acid is introduced to the stomach. Thus, the influence on systemic gastric acid inhibition action can be eliminated by the presence of the exogenous acid.
The reagent used in this test was a mixture of concentrated aqueous hydrochloric acid and absolute ethanol in a weight ratio of 1 to 50 in accordance with the dilution ratio used by Yamazaki et al. (Japan J. Pharmacol., 55 [1991], 415 to 424). In other respects, the experiment was performed as described under test 2.1., however, in addition to the erosion index calculated from the lenghts of the erosions in mm, the ratio of occurence of animals showing at least one gastric erosion within a test group, i.e. the erosion frequency, was also evaluated.

[2] = system: lesions of gastric mucosa; experiment: Test with absolute ethanol (gastric mucosa lesions, erosion index); type: in vivo, Rats; conditions: for Relative activity related to the inhibition of the free acid: gastroprotective action (absolute ethanol test) compared to the gastric acid inhibiting activity (Shay test, rats, p.o.); for activity in the test with absolute ethanol: result in words
Experimental: Rats of both sexes weighing 200 to 250 g, each previously starved for 24 hours, were used in this experiment. […] After one hour following the administration, the animals were killed by an overdose of ether, the stomach was excised and the alterations of gastric mucosa were examined. The lengths of the erosions were measured and summarized (expressed in mm) for each stomach to obtain the erosion index by calculating the average value of the group. The inhibition was calculated in percentage by comparing the value of the group treated with ethanol to that of the control group treated only with the vehicle. Various doses of the compounds to be tested were administered, perorally, in a volume of 5 ml/kg using a pretreatment time of 60 minutes. Eight rats were used for each dose. (A. Robert, Gastroenterology 77 [1979], 761 to 767). In the test with absolute ethanol which is useful for showing the gastroprotective activity, as to the effective dose range, a sharp difference can be made between the cytoprotective effect and the gastric acid inhibition, the latter resulting in the inhibition of the gastric erosion.

[3] = Acute toxicity (LD50, Litchfield and Wilcoxon); conditions: mouse, in vivo, po; NMRI mice of both sexes, peroral, 7 days observation; "higher than" = highest dose administered without any death
Experimental: The acute toxicity was determined on NMRI strain mice of both sexes weighing 20 to 25 g each by using 6 animals for each dose. The compounds to be tested were administered perorally in a volume of 20 ml/kg, the highest dose applied was 1 000 mg/kg. After the administration the animals were kept under usual laboratory conditions for 7 days. The LD50 values were calculated according to the method of Litchfield and Wilcoxon (J. Pharmacol. Exp. Ther., 96 [1949], 99).
The data given as "higher than" a certain value mean the highest dose administered without noting any death of animals.

Helicobacter pylori = experiment: Antibacterial effect on Helicobacter pylori (MIC on blood agar); type: cell-based; conditions: for MIC: Helicobacter pylori, 72 h, 37°C
Experimental: Helicobacter pylori strains used in these experiments were obtained from the biopsial samples of the stomachs of patients suffering from ulcerative diseases of the gastrointestinal system. From the pure culture of isolates a thick suspension was prepared with cysteine-inositol solution suitable for lyophilisation, and the suspension obtained was maintained in cold-resistant plastic ampoules in a deep-freezing chamber at a temperature of about -196°C. For the determination of the inhibitory effect of the compounds tested on Helicobacter pylori, blood agar containing 10 mg/litre of a stereoisomer of 23-[aminocarbonyl]-12-[{2-0-(3-amino-2,3,6-trideoxy-3-C-methyl-α-L-lyxo-hexopyranosyl)-β-D-glucopyranosyl}-oxy]-8,16-di-[chloro]-2,3,4,5,19,20,21,22,23,24,25,26,27,28,29,30-hexa-[decahydro]-5,19,34,36,38-penta-[hydroxy]-28-[{4-(methyl)-2-(methylamino)-1-(oxo)-pentyl}-amino]-3,21,25,28,41-penta-[oxo]-1H-6,9:15,18-[dietheno]-4,30-[iminomethano]-31,35-[metheno]-11,27,13-[[1]-propene[1,2]diyl[3]ylidene]-13H-10,14,2,22,26,29-benzodioxatetraazacycloheptatriacontine-1-carboxylic acid 〈vancomycin〉 and 25 mg/litre of [1R-(1R^x,3S^x,5R^x,6R^x,9R^x,11R^x,15S^x,16R^x,17R^x,18S^x,19E,21E,23E,25E,27E,29E,31E,33R^x,35S^x,36R^x,37S^x)]-33-[{3-(amino)-3,6-di-(deoxy)-β-D-mannopyranosyl}-oxy]-1,3,5,6,9,11,17,37-octa-[hydroxy]-15,16,18-tri-[methyl]-13-[oxo]-14,39-di-[oxa]-bicyclo-[33.3.1]-nonatriaconta-19,21,23,25,27,29,31-heptaene-36-carboxylic acid 〈amphotericin B〉 was used (C. A. M. McNulty and I. C. Dent: Susceptibility of clinical isolates of Campylobacter pylori to twenty one antimicrobial agents. Book of Abstracts, 4th European Congress of Clinical Microbiology, Nice [1989]).
The plates containing the strains were cultivated at 37°C for 72 hours under a gaseous atmosphere containing 10% of carbon dioxide and 5% of oxygen (D. M. Jones et al., J. Clin. Pathol., 37 [1984], 1 002).
The culture media were inoculated with a dilution of the broth culture of the strains grown overnight or with a suspension prepared from a culture obtained on a solid medium. About 10^5 of germs were applied to the surface of each plate.
A series of dilution were prepared from the compound to be tested. The MIC (minimal inhibiting concentration) value of the compounds tested was considered to be the lowest concentration inhibiting the growth of the test organism completely. The results obtained for (R,S)-2-(E)-[4'-(chloro)-phenylmethylene]-1-(E)-[3''-(hexylamino)-2''-(hydroxy)-propoxy-imino]-cyclohexane and colloidal bismuth subcitrate used as reference are given in Table IVa.

gastric acid secretion = experiment: Effect on the gastric acid secretion (Shay's method, pylorus ligation); type: in vivo, Wistar rats; conditions: test according to Shay, result in words
Experimental: The influence of the compounds on the gastric acid secretion was examined on starved Wistar rats of both sexes weighing 180 to 240 g each by using Shay's method (H. Shay et al., Gastroenterology, 5 [1945], 45). The compounds to be tested were given, perorally, 3 hours before the ligation of the pylorus. Four hours after the operation, the animals were killed by an overdose of ether, the stomach was excised, the stomach content was centrifuged and the free hydrochloric acid content of the gastric juice was determined by titration in the presence of Töpfer's reagent. The percentage of inhibition and then the ED50 values were determined by calculating average values for the groups and comparing those to the average values for the control group.

Molecule | Inhibition of the erosion frequency Relative activity [1] | Inhibition of the erosion index Relative activity [1] | ED50 [1] [mg/kg] | Inhibition of the erosion index ED50 p.o. [1] [mg/kg] | Relative activity related to the inhibition of the free acid [2] | LD50 at 168 h [3] [mg/kg] | also measured
CC(C)N(CC(O)CO/N=C1\CCCC\C1=C/c1ccc(Br)cc1)C(C)C (racemic) [(R,S)-2-(E)-[4'-(Bromo)-phenylmethylene]-1-(E)-[3''-(diisopropylamino)-2''-(hydroxy)-propoxy-imino]-cyclohexane] | 9.9 | 3.7 | 19.1 | 5.9 | about 25.0 | 1000 | –
OC(CNC1CCCCC1)CO/N=C1\CCCC\C1=C/c1ccc(Cl)cc1 (racemic) [(R,S)-2-(E)-[4'-(Chloro)-phenylmethylene]-1-(E)-[3''-(cyclohexylamino)-2''-(hydroxy)-propoxy-imino]-cyclohexane] | – | 2.1 | 30 to 60 | 10.3 | 30.0 | > 1000 | –
CN(C)CC(O)CO/N=C1\CCCC\C1=C/c1ccc(Cl)cc1 (racemic) [(R,S)-2-(E)-[4'-(Chloro)-phenylmethylene]-1-(E)-[3''-(dimethylamino)-2''-(hydroxy)-propoxy-imino]-cyclohexane] | – | 1.4 | 30 to 60 | 15.8 | – | > 1000 | –
CCCCCCNCC(O)CO/N=C1\CCCC\C1=C/c1ccc(Cl)cc1 (racemic) [(R,S)-2-(E)-[4'-(Chloro)-phenylmethylene]-1-(E)-[3''-(hexylamino)-2''-(hydroxy)-propoxy-imino]-cyclohexane] | 7.5 | 3.1 | 25.2 | 7.2 | 25.0 | > 1000 | MIC (Helicobacter pylori; Helicobacter pylori strain 867/90): 1.9 µg/mL (≈ 4.83 µM); MIC (Helicobacter pylori; Helicobacter pylori strain 1596): 0.9 µg/mL (≈ 2.29 µM); MIC (Helicobacter pylori; Helicobacter pylori strain 3842): 1.9 µg/mL (≈ 4.83 µM); MIC (Helicobacter pylori; Helicobacter pylori strain 6656): 1.9 µg/mL (≈ 4.83 µM); MIC (Helicobacter pylori; Helicobacter pylori strain 6709): 1.9 µg/mL (≈ 4.83 µM); effectiveness against Helicobacter pylori (Helicobacter pylori; compared with colloidal bismuth subcitrate, result in words): substantially more effective in the test than the colloidal bismuth subcitrate
CN(CC(O)CO/N=C1\CCCC\C1=C/c1ccc(Cl)cc1)C1CCCCC1 (racemic) [(R,S)-2-(E)-[4'-(Chloro)-phenylmethylene]-1-(E)-[3''-{N-(methyl)-N-(cyclohexyl)-amino}-2''-(hydroxy)-propoxy-imino]-cyclohexane] | – | – | – | – | – | > 1000 | –
CCCCCCNCC(O)CO/N=C1\CCCC\C1=C/c1ccccc1 (racemic) [(R,S)-2-(E)-[Phenylmethylene]-1-(E)-[3'-(hexylamino)-2'-(hydroxy)-propoxy-imino]-cyclohexane] | 7.4 | 1.9 | 25.7 | 11.5 | about 250.0 | > 1000 | –
NC[C@H]1CC[C@H](C(=O)Oc2ccc(CCC(=O)O)cc2)CC1 [cetraxate, 3-[4-{Trans-4-(aminomethyl)-cyclohexylcarbonyloxy}-phenyl]-propionic acid, reference compound] | 1.0 | 1.0 | 189 | 22.0 | – | – | gastric acid secretion inhibition (gastric acid secretion): only a moderate gastric acid secretion inhibition; activity in the test with absolute ethanol [2]: nearly identical low activity; LD50 at 7 days [3]: > 1000 mg/kg
COc1ccc2[nH]c([S+]([O-])Cc3ncc(C)c(OC)c3C)nc2c1 (stereo not shown) [omeprazole, 5-[Methoxy]-2-[{4-(methoxy)-3,5-di-(methyl)-2-pyridyl}-methylsulfinyl]-benzimidazole, reference compound] | – | – | – | – | – | – | LD50 at 7 days [3]: > 4000 mg/kg
the basic aluminum salt of saccharose hydrogen sulfate [sucralfate, reference compound] | – | – | – | – | – | – | activity in the test with absolute ethanol [2]: nearly identical low activity
